In patent publication US8367843B2, “Phenol derivative” (Fuji Yakuhin Co., Ltd., priority 2009, dated 2013):

Key:
Type in all cases: in vivo
[1] = tested on: male Wistar/ST rats (pyrazinamide model); assay: Uricosuric action in rat pyrazinamide model; conditions: urinary uric acid/creatinine ratio as percentage to control, test substance 30 mg/kg oral, 30 min after pyrazinamide 400 mg/kg, urine collected 2 to 3 hours after administration, read-out: Uricosuric action (control = 100)
Description: Uricosuric Action in Rat Pyrazinamide Model
Pyrazinamide suspended in a 0.5% methyl cellulose solution (0.5% MC) was orally administered to 7- and 8-week-old male Wistar/ST rats (4 rats per group) fasted for about 16 hours in a dose of 400 mg/kg. After 30 minutes, a test substance suspended in 0.5% MC was orally administered in a dose of 30 mg/kg, and urine was collected for 1 hour in a range from 2 to 3 hours after administration. At the beginning of collection of urine and after completion of collection of urine, rats were forced to urinate by pressing the abdomen of the rat. The concentration of uric acid and that of creatinine in urine were measured by a kit, and a ratio of the concentration of uric acid to that of creatinine was used as an indicator of a uricosuric action. The action of each test substance was expressed by percentage to control.

[2] = Concentration of unchanged compound in urine in rat; conditions: 3 mg/kg oral, fasted male Wistar/ST rats, urine collected for 4 hours after administration, HPLC
Description: Concentration of Unchanged Compound in Urine in Rat
A test substance suspended in 0.5% MC was orally administered to two male Wistar/ST rats fasted for about 16 hours in a dose of 3 mg/kg. Immediately after administration, urine was collected for 4 hours. After completion of collection of urine, urine remaining in the bladder was completely excreted by pressing the abdomen of the rat. The concentration of an unchanged compound in urine was measured by HPLC and expressed by a molar concentration (μM).

[3] = tested on: male Wistar/ST rats (pyrazinamide model); assay: Uricosuric action in rat pyrazinamide model; conditions: po, as above, but test substance 100 mg/kg

Row | Concentration of unchanged compound in urine [2] [µM] | Compound | response vs control in vivo at 30 mg/kg [1] [%] | response vs control in vivo at 100 mg/kg [3] [%]
1 | 9.8 | O=C(c1cc(Cl)c(O)c(Cl)c1)N1CS(=O)(=O)c2ccccc21 [Example 1, 3-(3,5-dichloro-4-hydroxybenzoyl)-1,1-dioxo-2,3-dihydro-1,3-benzothiazole] | 169 | 
2 | 51.8 | N#Cc1cc(C(=O)N2CS(=O)(=O)c3ccccc32)cc(C(F)(F)F)c1O [Example 4, 3-(3-cyano-4-hydroxy-5-trifluoromethylbenzoyl)-1,1-dioxo-2,3-dihydro-1,3-benzothiazole] | 201 | 
3 | 125 | N#Cc1cc(C(=O)N2CS(=O)(=O)c3ccccc32)cc(Cl)c1O [Example 7, 3-(3-chloro-5-cyano-4-hydroxybenzoyl)-1,1-dioxo-2,3-dihydro-1,3-benzothiazole] | 178 | 
4 | 1 | O=C(c1cc(Cl)c(O)c(C(F)(F)F)c1)N1CS(=O)(=O)c2ccccc21 [Example 18, 3-(3-chloro-4-hydroxy-5-trifluoromethylbenzoyl)-1,1-dioxo-2,3-dihydro-1,3-benzothiazole] | 202 | 
5 | 55.2 | O=C(c1cc(F)c(O)c(Cl)c1)N1CS(=O)(=O)c2ccccc21 [Example 19, 3-(3-chloro-5-fluoro-4-hydroxybenzoyl)-1,1-dioxo-2,3-dihydro-1,3-benzothiazole] | 129 | 
6 | 1.9 | CSc1cc(C(=O)N2CS(=O)(=O)c3ccccc32)cc(Cl)c1O [Example 21, 3-(3-chloro-4-hydroxy-5-methylsulfanylbenzoyl)-1,1-dioxo-2,3-dihydro-1,3-benzothiazole] | 120 | 
7 | 30.6 | CN(C)C(=O)c1cc(C(=O)N2CS(=O)(=O)c3ccccc32)cc(C(F)(F)F)c1O [Example 27, 3-(3-dimethylcarbamoyl-4-hydroxy-5-trifluoromethylbenzoyl)-1,1-dioxo-2,3-dihydro-1,3-benzothiazole] | 146 | 

Second part, the compound before the results:

Row | Compound | Concentration of unchanged compound in urine [2] [µM] | response vs control in vivo at 30 mg/kg [1] [%] | response vs control in vivo at 100 mg/kg [3] [%]
8 | CCc1oc2ccccc2c1C(=O)c1cc(Br)c(O)c(Br)c1 [Benzbromarone, reference compound] | 0 | 114 | 
9 | N#Cc1cc(C(=O)N2CSc3ccccc32)cc(C(F)(F)F)c1O [Example 5, 3-(3-cyano-4-hydroxy-5-trifluoromethylbenzoyl)-2,3-dihydro-1,3-benzothiazole] | 1.1 | 136 | 
10 | CCc1cc(C(=O)N2CS(=O)(=O)c3ccccc32)cc(C#N)c1O [Example 12, 3-(3-cyano-5-ethyl-4-hydroxybenzoyl)-1,1-dioxo-2,3-dihydro-1,3-benzothiazole] | 15.8 | 187 | 
11 | N#Cc1cc(C(=O)N2CS(=O)(=O)c3ccccc32)cc(C2CC2)c1O [Example 13, 3-(3-cyano-5-cyclopropyl-4-hydroxybenzoyl)-1,1-dioxo-2,3-dihydro-1,3-benzothiazole] | 3.9 | 172 | 
12 | C#Cc1cc(C(=O)N2CS(=O)(=O)c3ccccc32)cc(C#N)c1O [Example 14, 3-(3-cyano-5-ethynyl-4-hydroxybenzoyl)-1,1-dioxo-2,3-dihydro-1,3-benzothiazole] | 119 | 164 | 
13 | CSc1cc(C(=O)N2CS(=O)(=O)c3ccccc32)cc(C#N)c1O [Example 15, 3-(3-cyano-4-hydroxy-5-methylsulfanylbenzoyl)-1,1-dioxo-2,3-dihydro-1,3-benzothiazole] | 68.6 | 204 | 
14 | CCSc1cc(C(=O)N2CS(=O)(=O)c3ccccc32)cc(C#N)c1O [Example 34, 3-(3-cyano-5-ethylsulfanyl-4-hydroxybenzoyl)-1,1-dioxo-2,3-dihydro-1,3-benzothiazole] | 23.5 | 208 | 
15 | CC(C)Sc1cc(C(=O)N2CS(=O)(=O)c3ccccc32)cc(C#N)c1O [Example 35, 3-(3-cyano-4-hydroxy-5-isopropylsulfanylbenzoyl)-1,1-dioxo-2,3-dihydro-1,3-benzothiazole] | 1.5 | 140 | 
16 | N#Cc1cc(C(=O)N2CS(=O)(=O)c3ccc(C(F)(F)F)cc32)cc(C(F)(F)F)c1O [Example 38, 3-(3-cyano-4-hydroxy-5-trifluoromethylbenzoyl)-1,1-dioxo-5-trifluoromethyl-2,3-dihydro-1,3-benzothiazole] | 16.4 | 180 | 
17 | CCCN(CCC)S(=O)(=O)c1ccc(C(=O)O)cc1 [Probenecid, reference compound] | 0 | 111 | 171
